As a reminder, the inhibition is the drop in the measured response relative to a control, in per cent.

The subject of assay [1] is Mycobacterium tuberculosis. The assay is described as follows: MMV: Screen against Mtb, single point, replicating, at 25uM. Format: functional.
In assay [2] the test system is Mycobacterium tuberculosis. The experiment in a line: MMV: Screen against Mtb, single point, non replicating, at 25uM. Format: functional.

Take `CCOc1cc(CNC(C)C(O)c2ccccc2)cc(Cl)c1OCC` (centres undefined): the inhibition at 25 µM in assay [1] was 18.6%; in assay [2], 9.76%.

Take `Cc1cc(NC(=O)c2cccc(C(F)(F)F)c2)n(-c2nc(-c3ccc4c(c3)OCO4)cs2)n1`: the results for the inhibition at 25 µM in assay [1] and in assay [2] were 5.83% and 3.48%, respectively.

`Cc1cccc(-n2ncc3c(O)nc(-n4nc(C)cc4NC(=O)c4cc5ccccc5o4)nc32)c1`: the inhibition at 25 µM in assay [1] turned out to be 48.5%; in assay [2], 48.2%.

As to `O=C(Nc1ccccc1O)c1ccc(Oc2cccc(C(=O)Nc3ccccc3O)c2)cc1`, the inhibition at 25 µM came to 11.8% in assay [1] and 11.7% in assay [2].

Regarding `Oc1ccccc1CN1CCC2(CCCN(Cc3ccccc3F)C2)C1` (centres undefined), the values for the inhibition at 25 µM in assay [1] and in assay [2] were 50.6% and 9.59%, respectively.

Regarding `N=c1n(CCN2CCCCC2)c2ccccc2n1CC(O)c1cccc(Br)c1` (centres undefined), the inhibition at 25 µM in assay [1] worked out at 16.3%; in assay [2] it was 12.9%.

On to `COc1cccc(O)c1CN1CCC2(CCCN(Cc3ccc(F)cc3)C2)C1` (centres undefined), for which the values for the inhibition at 25 µM in assay [1] and in assay [2] were 18% and 16.4%, respectively.

On to `Cc1ccc(-c2cc(C(=O)Nc3ccc(S(=O)(=O)N4CCCCC4)cc3)[nH]n2)c(O)c1`, for which the inhibition at 25 µM in assay [1] was 11.4%; in assay [2] it was 9.41%.

Take `O=C(NCc1ccco1)C1CCN(S(=O)(=O)c2ccc(Cl)cc2)CC1`: the inhibition at 25 µM was determined as 46.4% in assay [1] and 12.4% in assay [2].

With `COc1ccc(C(=O)Nc2ccc3nc(N4CCCCC4)cc(C)c3c2)cc1OC`, the inhibition at 25 µM was determined as 21.3% in assay [1] and 23.7% in assay [2].

Consider `COc1ccc(N2CCN(C(CNC(=O)C3CCCCC3)c3ccc4c(c3)OCO4)CC2)cc1` (centres undefined), for which the inhibition at 25 µM in assay [1] is -3.89%; in assay [2], 0.862%.

For `COc1cc2cc(C(=O)Nc3ccccc3)c(N)nc2cc1OC`, the inhibition at 25 µM in assay [1] worked out at 17.1%; in assay [2], 1.39%.

As to `COc1cccc(NC(=O)Cn2c(C)c(C#N)c3ccccc32)c1`, the inhibition at 25 µM in assay [1] came to 7.96%; in assay [2], 8.89%.

Regarding `Cn1c(=O)c2cc(C(=O)NCCCN3CCCCCC3)sc2c2ccccc21`, the inhibition at 25 µM was found to be 19.5% in assay [1] and 14.6% in assay [2].

Turning to `Cc1[nH]c(-c2ccc(F)cc2)cc1C(=O)NC1CCN(Cc2ccccc2)CC1`, the inhibition at 25 µM in assay [1] was 20.7%; in assay [2] it was 4%.

As for `COc1ccc(CCN2CCC(CN(C)Cc3cnn(-c4ccccc4)c3)CC2)cc1`, the results for the inhibition at 25 µM in assay [1] and in assay [2] were 21.3% and 15%, respectively.

Consider `O=C(NC(c1ccccc1)c1ccc2cccnc2c1O)c1ccccc1` (centres undefined), for which the inhibition at 25 µM is 7.65% in assay [1] and 17.1% in assay [2].

Turning to `Oc1ccccc1CN1CCN(C(c2ccccc2)c2ccccc2)CC1`, the inhibition at 25 µM was found to be 33.3% in assay [1] and 28.8% in assay [2].

On to `O=C(NC1CCCC1)c1ccc(N2CCC(NCc3cccc(C(F)(F)F)c3)CC2)cc1`, for which the inhibition at 25 µM in assay [1] came to 22.1%; in assay [2] it was 3.83%.

Take `CCOc1cc(Br)c(C(C)NC(=O)c2cccc(OC)c2)cc1OCC` (centres undefined): the inhibition at 25 µM in assay [1] came out at 11.9%; in assay [2], 5.22%.

For `CC(C)=CCN1CCC(C(=O)Nc2ccc(-c3nc4ccccc4[nH]3)cc2)CC1`, the values for the inhibition at 25 µM in assay [1] and in assay [2] were 12.5% and 17.3%, respectively.

With `CCN(CC)CCn1c(=N)n(CC(O)c2ccc(Cl)c(Cl)c2)c2ccccc21` (centres undefined), the inhibition at 25 µM in assay [1] stood at 36.2%; in assay [2] it was 10.1%.

On to `CCOc1cc(Cl)c(C(C)NC(=O)c2cccc(OC)c2)cc1OCC` (centres undefined), for which the inhibition at 25 µM is 1.28% in assay [1] and 9.94% in assay [2].

For the molecule `O=C(CCc1ccco1)NC1CCN(CC2(c3ccc(Cl)cc3)CCC2)CC1`, the inhibition at 25 µM was found to be 31.6% in assay [1] and 20.8% in assay [2].

For `FC(F)(F)c1cccc(Nc2nc(-c3ccccc3)nc3ncccc23)c1`, the inhibition at 25 µM in assay [1] turned out to be 1.43%; in assay [2], 7.32%.

For `CCN1CCN(c2cc(C)c3cc(NC(=O)c4ccc(OC)c(OC)c4)ccc3n2)CC1`, the inhibition at 25 µM in assay [1] turned out to be 14.8%; in assay [2] it was 12.7%.

As to `COc1ccc(CNC2CCN(c3ccc(NC(=O)c4cccc(Cl)c4)cc3)CC2)cc1OC`, the inhibition at 25 µM in assay [1] is 47.3%; in assay [2] it was 19.2%.

On to `Cc1ccc(CSCc2ccc(C(=O)NC3CC3)o2)cc1`, for which the inhibition at 25 µM came to 24.4% in assay [1] and 11.3% in assay [2].

In the case of `CC(NCc1ccccc1)c1cc(Cl)ccc1O` (centres undefined), the inhibition at 25 µM in assay [1] turned out to be 21.2%; in assay [2], 14.8%.

As for `CN1CCN(c2c3c(c(C#N)c4nc5ccccc5n24)CCC3)CC1`, the inhibition at 25 µM in assay [1] amounted to 7.2%; in assay [2] it was 4.53%.

As for `CCOc1ccc(C2N(C)c3ccccc3N2C)cc1`, the inhibition at 25 µM in assay [1] was determined as 8.11%; in assay [2], 11.7%.

As for `COc1ccc(C(=O)Nc2ccc(Cl)cc2C(=O)Nc2ccncc2)cc1`, the figures for the inhibition at 25 µM in assay [1] and in assay [2] were 4.46% and 30.9%, respectively.

In the case of `O=C(Nc1ccc(CN2CCOCC2)cc1)c1ccc(-c2ccc(Br)cc2)o1`, the values for the inhibition at 25 µM in assay [1] and in assay [2] were 26% and 24.4%, respectively.

For `CC(=O)NCCc1nc2ccccc2n1Cc1ccc(C(C)C)cc1`, the inhibition at 25 µM was determined as 2.04% in assay [1] and 8.72% in assay [2].

For `COc1nc(Nc2ccc(C(C)C)cc2)nc(OC)n1`, the values for the inhibition at 25 µM in assay [1] and in assay [2] were 14% and 8.02%, respectively.

`CCN(CC)CCNc1ncnc2c1[nH]c1ccc(Br)cc12`: the inhibition at 25 µM in assay [1] came to 20.6%; in assay [2] it was 13.4%.

Regarding `CCOc1cccc(C(=O)Nc2ccc(-c3nc4ccccc4[nH]3)cc2)c1`, the inhibition at 25 µM in assay [1] turned out to be 15.5%; in assay [2], 18%.

As to `CN(C)c1ccc(-c2nc3cc(N)ccc3[nH]2)cc1`, the inhibition at 25 µM in assay [1] was -1%; in assay [2], 16.4%.

With `O=C(CSc1ccc2nnc(-c3cccc(F)c3)n2n1)Nc1ccc2c(c1)OCO2`, the inhibition at 25 µM in assay [1] is 5.98%; in assay [2], 19.2%.

With `CCN(CC)c1ccc(NC(=O)c2cccs2)cc1`, the inhibition at 25 µM in assay [1] came to 4.01%; in assay [2], 13.1%.

On to `CCCC(c1nnnn1C1CCCCC1)N1CCN(C(=O)c2ccco2)CC1` (centres undefined), for which the inhibition at 25 µM in assay [1] amounted to 20.4%; in assay [2], 5.57%.

On to `CC(C)(C)C(=O)Nc1ccc(C(=O)Nc2cccc(-c3nc4ccccc4[nH]3)c2)cc1`, for which the figures for the inhibition at 25 µM in assay [1] and in assay [2] were 10.8% and 8.19%, respectively.

`COc1ccc(-c2nonc2NC(=O)c2cccc(C)c2)cc1OC`: the inhibition at 25 µM in assay [1] is 3.1%; in assay [2], -4.72%.

In the case of `COc1cccc(-c2nn(C)c3sc(C(=O)NCCN4CCN(c5ccccc5F)CC4)cc23)c1`, the results for the inhibition at 25 µM in assay [1] and in assay [2] were 29.5% and 14.8%, respectively.

In the case of `O=C(Nc1ccc(N2CCN(Cc3ccccc3)CC2)cc1)c1cccs1`, the inhibition at 25 µM in assay [1] worked out at 11%; in assay [2], 6.45%.

Regarding `Cc1ccc(CN2CCC(C(=O)Nc3ccc(-c4cc5ccccc5[nH]4)cc3)CC2)o1`, the inhibition at 25 µM in assay [1] amounted to 8.26%; in assay [2], 22.9%.

For the molecule `O=C(Nc1ccc(N2CCCCC2)c(Cl)c1)c1ccc(Br)o1`, the inhibition at 25 µM was 18.9% in assay [1] and 11.9% in assay [2].

Turning to `O=C(Nc1ccsc1C(=O)NC1CCCCC1)c1ccc(F)cc1`, the inhibition at 25 µM is 3.4% in assay [1] and 20.6% in assay [2].

`CC(C)(C)c1ccc(C(=O)Nc2nc3ccccc3s2)cc1`: the results for the inhibition at 25 µM in assay [1] and in assay [2] were 54% and -0.011%, respectively.

Turning to `CCOc1cccc2sc(N(Cc3cccnc3)C(=O)C3CCCCC3)nc12`, the results for the inhibition at 25 µM in assay [1] and in assay [2] were 13.9% and 14.3%, respectively.

On to `CC1CC(C)CN(C(=O)c2ccc(Cl)cc2Cl)C1` (centres undefined), for which the inhibition at 25 µM in assay [1] is 14.8%; in assay [2], 9.59%.

With `COc1ccccc1CNC(=O)C1c2ccccc2C(=O)N(CC(C)C)C1c1cccs1` (centres undefined), the inhibition at 25 µM turned out to be 15.7% in assay [1] and 9.76% in assay [2].

As for `OC(CNC1CCCC1)Cn1c2ccccc2c2ccccc21` (centres undefined), the inhibition at 25 µM in assay [1] was 27.5%; in assay [2] it was 13.1%.

With `COc1ccc(C2N(C)c3ccccc3N2C)cc1`, the inhibition at 25 µM in assay [1] is -1.76%; in assay [2], -0.36%.

`CCN(CC)c1cc(C)c2cc(NC(=O)c3cccc(OC)c3)ccc2n1`: the figures for the inhibition at 25 µM in assay [1] and in assay [2] were 18.7% and 19.7%, respectively.

For the molecule `O=C(Nc1ccccc1O)c1ccc(-c2ccc(Cl)cc2Cl)o1`, the results for the inhibition at 25 µM in assay [1] and in assay [2] were 13.7% and 27.6%, respectively.

Consider `CC(C)OCc1cc(CN2CCN(c3cccc(Cl)c3)CC2)c(O)c2ncccc12`, for which the values for the inhibition at 25 µM in assay [1] and in assay [2] were 9.32% and 11.7%, respectively.

Regarding `CCOc1ccc(-c2nc(NC(=O)c3cccc(S(C)(=O)=O)c3)sc2C)cc1`, the inhibition at 25 µM in assay [1] worked out at 54.3%; in assay [2], 11.7%.

Regarding `Clc1ccc2[nH]c3c(NCCCN4CCOCC4)ncnc3c2c1`, the results for the inhibition at 25 µM in assay [1] and in assay [2] were 16.2% and 21.6%, respectively.

In the case of `COc1ccccc1N1CCN(C(CNS(=O)(=O)c2ccc(Cl)cc2)c2cccnc2)CC1` (centres undefined), the inhibition at 25 µM was determined as 4.01% in assay [1] and 15.2% in assay [2].

On to `CCCc1c(C)nc2ccccc2c1O`, for which the inhibition at 25 µM in assay [1] came to 15.9%; in assay [2], 9.94%.

Turning to `CCOc1c(Cl)cc(CNC(C)C(O)c2ccccc2)cc1OC` (centres undefined), the figures for the inhibition at 25 µM in assay [1] and in assay [2] were 12.7% and 10.3%, respectively.

As for `CCCN(CCC)CCCNC(=O)c1cc2c(-c3ccc(OC)c(OC)c3)nn(C)c2s1`, the inhibition at 25 µM is 5.83% in assay [1] and -0.011% in assay [2].

`CN1c2ccccc2N(C)C1c1ccc2c(c1)OCO2`: the inhibition at 25 µM in assay [1] was 9.63%; in assay [2] it was 14.5%.

In the case of `O=C(NCC1Cc2cccc(-c3ccncc3)c2O1)c1csc2c1CCCC2` (centres undefined), the inhibition at 25 µM in assay [1] was 14.2%; in assay [2], 5.92%.

In the case of `C=C(C)CCC(C)N1CCC(N2CCC(C(=O)NCCc3ccccc3)CC2)CC1` (centres undefined), the inhibition at 25 µM in assay [1] was -4.8%; in assay [2], 15.2%.

Turning to `C=CCc1c(C)nc2ccccc2c1O`, the values for the inhibition at 25 µM in assay [1] and in assay [2] were 15.2% and 1.56%, respectively.

The record behind these values is ChEMBL document CHEMBL2094260, “Malaria Box Tuberculosis Screening Data”.
